Results on two compounds are retold here after patent publication US20030212104A1, “Treatment of diabetes and diabetic complications with NHE-1 inhibitors” (Pfizer Inc., priority 2002, published 2003).

This experiment concerns diabetic ob/ob mice. Kind of experiment: Antidiabetic effect in diabetic ob/ob mice (plasma glucose, insulin, triglyceride). Format: in vivo. From the text: Five to eight week old male C57BLU6J-ob/ob mice (obtained from Jackson Laboratory, Bar Harbor, Me.) are housed five per cage under standard animal care practices. After a one week acclimation period, the animals are weighed and 25 microliters of blood are collected from the retro-orbital sinus prior to any treatment. The blood sample is immediately diluted 1:5 with saline containing 0.025% sodium heparin, and held on ice for metabolite analysis. Animals are assigned to treatment groups so that each group has a similar mean for plasma glucose concentration. After group assignment, animals are dosed orally each day for four days with the vehicle consisting of either: (1) 0.25% w/v methyl cellulose in water without pH adjustment; or (2) 0.1% Pluronic® P105 Block Copolymer Surfactant (BASF Corporation, Parsippany, N.J.) in 0.1% saline without pH adjustment. On day 5, the animals are weighed again and then dosed orally with a test compound or the vehicle alone. All compounds are administered in vehicle consisting of either: (1) 0.25% w/v methyl cellulose in water; or 3) neat PEG 400 without pH adjustment; (2) 10% DMSO/O.1% Pluronic® in 0.1% saline without pH adjustment; or 3) neat PEG 400 without pH adjustment. The animals are then bled from the retro-orbital sinus three hours later for determination of blood metabolite levels. The freshly collected samples are centrifuged for two minutes at 10,000×g at room temperature. The supernatant is analyzed for glucose, for example, by the Abbott VP™ (Abbott Laboratories, Diagnostics Division, Irving, Tex.) and VP Super System® Autoanalyzer (Abbott Laboratories, Irving, Tex.), or by the Abbott Spectrum CCX™ (Abbott Laboratories, Irving, Tex.) using the A-Gent™ Glucose-UV Test reagent system (Abbott Laboratories, Irving, Tex.) (a modification of the method of Richterich and Dauwalder, Schweizerische Medizinische Wochenschrift, 101: 860 (1971)) (hexokinase method) using a 100 mg/dl standard. Plasma glucose is then calculated by the equation: Plasma glucose (mg/dl)=Sample value×8.14
where 8.14 is the dilution factor, adjusted for plasma hematocrit (assuming the hematocrit is 44%).
Hypoglycemic activity of the test compounds is determined by statistical analysis (unpaired t-test) of the mean plasma glucose concentration between the test compound group and vehicle-treated group on day 5. The above assay carried out with a range of doses of a test compound allows the determination of an approximate minimal effective dose (MED) value for the in vivo reduction of plasma glucose concentration.
Five to eight week old male C57BL/6J-ob/ob mice (obtained from Jackson Laboratory, Bar Harbor, Me.) are housed five per cage under standard animal care practices and fed standard rodent diet ad libitum. After a one week acclimation period, the animals are weighed and 25 microliters of blood are collected from the retro-orbital sinus prior to any treatment. The blood sample is immediately diluted 1:5 with saline containing 0.025% sodium heparin, and held on ice for plasma glucose analysis. Animals are assigned to treatment groups so that each group has a similar mean for plasma glucose concentration. The compound to be tested is administered by oral gavage as an about 0.02% to 2.0% solution (weight/volume (w/v)) in either (1) 10% DMSO/0.1% Pluronic® P105 Block Copolymer Surfactant (BASF Corporation, Parsippany, N.J.) in 0.1% saline without pH adjustment or (2) 0.25% w/v methylcellulose in water without pH adjustment. Alternatively, the compound to be tested can be administered by oral gavage dissolved in or in suspension in neat PEG 400. Single daily dosing (s.i.d.), twice daily dosing (b.i.d.) or other dosing regimen is maintained for 1 to, for example, 15 days. Control mice receive the 10% DMSO/0.1% Pluronic® P105 in 0.1 % saline without pH adjustment or the 0.25% w/v methylcellulose in water without pH adjustment, or the neat PEG 400 without pH adjustment. […]

[1] abbreviates: Study 1 conclusion: diabetic ob/ob mice, 20 mg/kg qd for five days.
Where [2] appears, read: Study 3 conclusion: diabetic ob/ob mice, 20 mg/kg bid for seven days.

In the case of `N=C(N)NC(=O)c1cnn(-c2cccc3ncccc23)c1C1CC1` [[5-cyclopropyl-1-(quinolin-5-yl)-1H-pyrazole-4-carbonyl]guanidine], the “Day 5, 3h post-dose plasma insulin concentration” value (Study 1: ob/ob mice n=10, 20 mg/kg qd for five days, mean ± SD, vehicle control 57.7 ± 24.5, p = 0.000331) worked out at 20.5 ± 10.3 µg/L. Besides, the “Day 5, 3h post-dose plasma glucose concentration” value (Study 1: ob/ob mice n=10, 20 mg/kg qd for five days, mean ± SD, vehicle control 482 ± 139, p = 0.0498) was 371 ± 90 mg/dL. Besides, under setting [1], the “Plasma glucose concentration compared to the vehicle control group” value was “significantly reduced” and the “Plasma insulin concentration compared to the vehicle control group” value was “significantly reduced”.
With “[1-(2-trifluoromethyl-4-chlorophenyl)-5-cyclopropyl-1H-pyrazole-4-carbonyl]-guanidine”, under “Study 2: ob/ob mice n=10, 20 mg/kg bid for four days plus AM dose on fifth day, mean ± SD, vehicle control 10.0 ± 6.8”, the “Day 5, 3h post-dose plasma insulin concentration” value was 11.1 ± 9.0 µg/L. Moreover, the “Day 5, 3h post-dose plasma glucose concentration” value (Study 2: ob/ob mice n=10, 20 mg/kg bid for four days plus AM dose on fifth day, mean ± SD, vehicle control 322 ± 72, p = 0.0003) is 195 ± 50 mg/dL. In addition, the “Plasma glucose concentration compared to the vehicle control group” value (Study 2 conclusion: diabetic ob/ob mice, 20 mg/kg bid for four days) is reported as “significantly reduced”. In addition, the “Day 8, 3h post-dose plasma triglyceride concentration” value (Study 3: ob/ob mice n=15, 20 mg/kg bid for seven days plus AM dose on eighth day, mean ± SD, vehicle control 167 ± 44, p = 0.0002) turned out to be 107 ± 24 mg/dL. The “Day 8, 3h post-dose plasma glucose concentration” value (Study 3: ob/ob mice n=15, 20 mg/kg bid for seven days plus AM dose on eighth day, mean ± SD, vehicle control 397 ± 134, p = 0.0001) was found to be 204 ± 69 mg/dL. For the same compound, under setting [2], the “Plasma glucose concentration compared to the vehicle control group” value is on record as “significantly reduced”, the “Plasma insulin concentration compared to the vehicle control group” value was “significantly reduced” and the “Plasma triglyceride concentration compared to the vehicle control group” value is reported as “significantly reduced”.
